According to patent US8980848B2, “Flavonoid dimers and their use” (The Hong Kong Polytechnic University, priority 2010, dated 2015):
Read-outs that look alike come from different tables or passages of the source.

Key:
PEM cells = assay: Cytotoxicity, primary mouse peritoneal elicited macrophage (PEM); assay type: cell-based
Procedure: (a) Mouse Macrophage Raw 264.7 and Primary Mouse PEM Cells. The cytotoxicity assay of reference antileishmanial compounds and the compounds of this invention was performed against mouse macrophage cell line, Raw 264.7 and primary mouse PEM cells in order to calculate the therapeutic index (IC50 value for cytotoxicity of the compounds divided by IC50 value for antileishmanial activity of the compounds). The cells were grown in supplemented DMEM media in an atmosphere of 95% air with 5% CO2 at 37° C. In brief, Raw264.7 cells and PEM cells were seeded into 96-well flat bottom microtiter plate at 1×10^4cells and 2×10^4 cells per well in a final volume of 100 μL media, respectively. A graded dose of flavonoid dimers or antileishmanials was added into wells. The plate was incubated at 37° C. for 72 hrs at the atmosphere 5% CO2 in the air. The % of survivors was determined.

[1] = test system: Ld39 promastigotes (SSG-resistant); assay: In vitro anti-promastigote activity, Ld39; assay type: cell-based, Leishmania donovani; conditions: read-out: Anti-promastigotes activity (IC50, μM) Ld39
Outline: (§1)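 L. donovani (LdAG83 wild type, SSG-resistant Ld39) and L. major Lm50122 promastigotes were seeded at 1×10^5 per well with a concentration series of compound.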

Ld39 amastigotes = assay: In vitro anti-amastigote activity, Ld39 amastigotes in mouse PEM; conditions: for IC50: Leishmania donovani, in Mus musculus
Procedure: Peritoneal elicited macrophages (PEM) from mouse were obtained as previously described. A round cover slip (12 mm in diameter) was placed into each well of 24-well culture plate. Mouse macrophages were resuspended in supplemented DMEM media containing 10% heat inactivated fetal bovine serum (v/v), 100 U/mL penicillin and 100 μg/mL streptomycin and seeded into each well at a cell density of 1×10^5 cells per 500 μL. Macrophages were allowed to attach overnight and the non-adherent cells were removed by gentle washing twice with unsupplemented DMEM media. […] Non-internalized promastigotes were removed by washing with unsupplemented DMEM media for two times. Infected macrophages were further incubated in 500 μL supplemented DMEM media in the presence or absence of flavonoid dimers or known antileishmanials for 72 hrs at 37° C. After incubation, the cover slips were stained with Giemsa and the amastigotes inside each macrophage (100 macrophages per treatment) were counted under microscope. The percentage of macrophages infected and number of amastigotes per 100 macrophages was enumerated.
The % of infected macrophage and the number of amastigotes per 100 macrophages were counted by staining with Giemsa.

[2] = test system: LdAG83PentR50 promastigotes (pentamidine-resistant); assay: microbe, parasite or virus in culture; assay type: cell-based, Leishmania donovani; conditions: read-out: Anti-promastigotes activity (IC50, μM) LdAG83PentR50
Procedure: (§2) Cell Lines and Cell Culture. Promastigotes of Leishmania donovani (wild type LdAG83, pentamidine-resistant LdAG83-PentR50, and SSG-resistant Ld39) and Leishmania major [MHOM/IL/67/JERICHO II (Lm50122), from ATCC] were used in this study.
No pentamidine or sodium stibogluconate was added to the L. donovani wild type (LdAG83) and L. major wild type (Lm50122). The mouse macrophage cell line, Raw264.7, was used for the determination of the relative toxicity of the compounds of the invention. […] They were maintained at 37° C. in a humidified atmosphere with 5% CO2. The cells were split constantly after a confluent monolayer has been formed. To split cells, the plate was washed briefly with PBS, treated with 0.05% trypsin-EDTA and harvested by centrifugation.
(§3) In Vitro Anti-Promastigote Activity. The viability of promastigotes was determined by the Cell Titer 96° Aqueous Assay (Promega) that employs a tetrazolium compound (MTS, 2-(4,5-Dimethylthiazol-2-yl-)-5-[3-(carboxymethoxy)phenyl]-2-(4-sulfophenyl)-2H-tetrazolium) and electron coupling reagent, phenazine methosulfate (PMS).^7 Promastigotes were seeded into 96-well flat bottom microtiter plate at 1×10^5 cells per well in a final volume of 100 μL medium and incubated with a series concentration of synthetic flavonoid dimers or known antileishmanials. The parasites were incubated at 27° C. for 72 hrs. Fresh solution of 2 mg/mL MTS and 0.92 mg/mL PMS were prepared in a ratio of 20:1 (MTS:PMS). After 72 hrs incubation, 10 μL of MTS:PMS mixture was added into each well of microtiter plate. The plate was then incubated at 27° C. for 4 hrs for color development. After 4 hrs incubation, the OD values were determined at 490 nm using automatic microtiter plate reader (Bio-Rad).

Lm50122 promastigotes = assay: In vitro anti-promastigote activity, Lm50122; assay type: cell-based, Leishmania major; conditions: Leishmania major, 72 h, read-out: Anti-promastigotes activity (IC50, μM) Lm50122
Procedure: as §2, §3

Leishmania promastigotes = assay: Anti-promastigote activity over the Leishmania strains; assay type: cell-based, Leishmania donovani, Leishmania major; conditions: for IC50: different Leishmania strains, read-out: Anti-promastigote IC50, range over strains
Procedure: as §2, §3

Raw264.7 cells = assay: Cytotoxicity, mouse macrophage Raw264.7; assay type: cell-based
Outline: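 Raw264.7 (1×10^4 cells/well) and primary PEM cells (2×10^4 cells/well) in supplemented DMEM received graded compound doses and were incubated 72 h at 37 °C, 5% CO2. Percent survivors determined; cytotoxicity IC50 used for therapeutic index against antileishmanial IC50.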

[3] = test system: LdAG83 promastigotes (wild type); assay: In vitro anti-promastigote activity, LdAG83; assay type: cell-based, Leishmania donovani; conditions: read-out: Anti-promastigotes activity (IC50, μM) LdAG83
Outline: as §1

LCC6 cells = assay: Tumor cell line cytotoxicity of flavonoid dimers, LCC6; assay type: cell-based, human; conditions: IC50 of compound alone, 72 hrs
Outline: (§4)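 LCC6, LCC6MDR and L929 cells seeded at 1×10^4 cells/well and exposed to graded doses of flavonoid dimers. Incubation 72 hrs at 37° C., 5% CO2. Read-out: % survivors.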

Pgp (LCC6MDR cells) = Pgp (LCC6MDR cells) (Homo sapiens, UniProt P08183); assay: Cell proliferation assay: Pgp-modulating activity, reversal of anticancer drug resistance in LCC6MDR cells; conditions: for RF (Relative Fold), cpd at 0.5 μM: RF = (IC50 without modulator)/(IC50 with 0.5 μM modulator), paclitaxel
Procedure: Cell Proliferation Assay. 6,000 cells of LCC6 or LCC6MDR and anticancer drugs (paclitaxel, vinblastine, vincristine, doxorubicin and mitoxantrone) were mixed with or without modulators to a final volume of 200 μL in each well of 96-well plates. […] The plates were then incubated for 5 days at 37° C. […] IC50 values were calculated from the dose-response curves of MTS assays (Prism 4.0).

LCC6MDR cells = assay: Tumor cell line cytotoxicity of flavonoid dimers, LCC6MDR; assay type: cell-based, human; conditions: IC50 of compound alone, 72 hrs
Outline: as §4

L929 cells = assay: Cytotoxicity of flavonoid dimers, L929 mouse fibroblast; assay type: cell-based
Outline: as §4

[4] = Tumor cell line cytotoxicity of flavonoid dimers, LCC6; assay type: cell-based, human; conditions: human, LCC6 cells, IC50 of compound alone
Outline: as §4

[5] = Cytotoxicity of flavonoid dimers, L929 mouse fibroblast; assay type: cell-based; conditions: mouse, L929 fibroblast cells, IC50 of compound alone, 72 hrs, mouse fibroblast
Outline: as §4

[6] = Tumor cell line cytotoxicity of flavonoid dimers, LCC6MDR; assay type: cell-based, human; conditions: human, LCC6MDR cells, IC50 of compound alone
Outline: as §4

[7] = Cytotoxicity over LCC6, LCC6MDR and L929 cell lines; assay type: cell-based, human, mouse; conditions: human; cancer lines LCC6, LCC6MDR and/or L929
Procedure: (b) Tumor Cell Line Cytotoxicity. The tumor cytotoxicity assays of flavonoid dimers were performed against LCC6, LCC6MDR and L929 cell lines. The cells were grown in supplemented DMEM media in an atmosphere of 95% air and 5% CO2 at 37° C. In brief, LCC6, LCC6MDR and L929 cells were seeded into 96-well flat bottom microtiter plate at 1×10^4 cells per well in a final volume of 100 μL media, respectively. A graded dose of flavonoid dimers was added into wells. The plate was incubated at 37° C. for 72 hrs at the atmosphere 5% CO2 in the air. The % of survivors was determined.

[8] = Mus musculus, Macrophage, Table 7, cytotoxicity
[9] = cytotoxicity, primary mouse macrophage, 72 hrs
[10] = Leishmania donovani, 72 h, 3 days at 27° C., MTS
[11] = 72 h, read-out: Ld39 (IC50, mM)

Sequence of Pgp (LCC6MDR cells) (P08183 whole entry): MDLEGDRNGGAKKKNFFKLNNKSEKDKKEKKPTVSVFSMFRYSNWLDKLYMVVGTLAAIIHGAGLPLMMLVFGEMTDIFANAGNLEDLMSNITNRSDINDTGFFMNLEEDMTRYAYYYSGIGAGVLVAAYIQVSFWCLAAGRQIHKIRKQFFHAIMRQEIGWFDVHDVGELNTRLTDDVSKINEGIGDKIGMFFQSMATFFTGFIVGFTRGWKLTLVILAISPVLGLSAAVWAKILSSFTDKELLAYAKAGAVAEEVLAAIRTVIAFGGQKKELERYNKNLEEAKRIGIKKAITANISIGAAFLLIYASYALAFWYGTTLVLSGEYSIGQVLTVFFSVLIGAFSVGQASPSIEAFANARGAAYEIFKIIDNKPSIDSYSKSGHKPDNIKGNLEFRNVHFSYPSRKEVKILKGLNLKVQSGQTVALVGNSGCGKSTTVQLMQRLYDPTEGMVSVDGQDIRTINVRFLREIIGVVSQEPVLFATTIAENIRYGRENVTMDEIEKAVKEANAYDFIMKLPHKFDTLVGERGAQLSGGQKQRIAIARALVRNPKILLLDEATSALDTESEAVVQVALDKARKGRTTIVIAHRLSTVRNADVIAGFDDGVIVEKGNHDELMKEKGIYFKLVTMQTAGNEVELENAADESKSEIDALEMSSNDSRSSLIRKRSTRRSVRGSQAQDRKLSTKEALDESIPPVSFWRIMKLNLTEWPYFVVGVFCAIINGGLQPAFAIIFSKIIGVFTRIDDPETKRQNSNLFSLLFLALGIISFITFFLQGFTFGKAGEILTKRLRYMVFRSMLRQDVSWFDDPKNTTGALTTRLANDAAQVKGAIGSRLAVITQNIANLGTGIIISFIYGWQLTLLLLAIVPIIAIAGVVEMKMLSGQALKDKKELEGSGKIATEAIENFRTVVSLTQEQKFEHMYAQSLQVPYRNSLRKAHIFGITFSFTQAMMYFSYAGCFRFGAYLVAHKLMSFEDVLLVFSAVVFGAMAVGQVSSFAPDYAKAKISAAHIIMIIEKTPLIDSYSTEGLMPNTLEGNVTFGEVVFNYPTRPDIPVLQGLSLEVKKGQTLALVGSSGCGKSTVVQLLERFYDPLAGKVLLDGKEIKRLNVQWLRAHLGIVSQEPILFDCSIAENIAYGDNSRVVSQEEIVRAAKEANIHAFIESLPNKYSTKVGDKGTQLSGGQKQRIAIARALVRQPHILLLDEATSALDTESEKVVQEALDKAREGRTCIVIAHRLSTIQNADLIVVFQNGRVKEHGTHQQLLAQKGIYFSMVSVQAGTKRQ

Row | SMILES | IC50 (PEM cells; [8]) [µM] | IC50 (PEM cells; [9]) [µM] | IC50 [1, 10] [µM] | IC50 (Ld39 amastigotes; [11]) [mM] | IC50 ([2]; Leishmania donovani, 72 h) [µM] | IC50 (Lm50122 promastigotes; 3 days at 27° C., MTS) [µM] | IC50 (Leishmania promastigotes) [µM] | IC50 (Raw264.7 cells; Mus musculus, RAW264.7, 72 h) [µM] | RF (Relative Fold), cpd at 0.5 μM (Pgp (LCC6MDR cells); LCC6MDR) | further results
1 | NC[C@@H]1O[C@H](O[C@H]2[C@@H](O)[C@H](O[C@@H]3[C@@H](O)[C@H](N)C[C@H](N)[C@H]3O[C@H]3O[C@H](CO)[C@@H](O)[C@H](O)[C@H]3N)O[C@@H]2CO)[C@H](N)[C@@H](O)[C@@H]1O [Paromomycin, paromomycin, reference compound] | > 100 | > 100 | 24.5 ± 2.4 | 0.041 | 85.5 ± 13.5 | 94.5 ± 5.5 | 24.5 to 94.5 | > 100 | – | IC50 [3, 10]: 62.6 ± 9.5 µM
2 | CCCCCCCCCCCCCCCCOP(=O)([O-])OCC[N+](C)(C)C [Miltefosine, reference compound] | 75.3 ± 9.4 | 75.3 ± 9.4 | 17.3 ± 2.1 | 0.016 ± 0.0064 | 9.3 ± 2.4 | 9.8 ± 2.3 | 4.3 to 17.3 | 20 | – | –
3 | O=C(O)CCC(=O)N(CCOCCOc1ccc(-c2cc(=O)c3ccccc3o2)cc1)CCOCCOc1ccc(-c2cc(=O)c3ccccc3o2)cc1 [Compound 23a, 1,13-Bis[4′-(4H-chromen-4-on-2-yl)phenyl]-N-(4-hydroxy-1,4-dioxobutyl)-1,4,10,13-tetraoxa-7-azamidecane] | – | – | – | – | – | – | – | – | (1.1) | IC50 ([1]; 3 days at 27° C., MTS): > 100 µM; IC50 ([2]; 3 days at 27° C., MTS): 27 µM; IC50 (LCC6 cells): 78.4 ± 8.1 µM; IC50 (Raw264.7 cells; 72 hrs): 65 µM; IC50 (LCC6MDR cells): > 100 µM; IC50 ([3]; 3 days at 27° C., MTS): > 100 µM
4 | N=C(N)c1ccc(OCCCCCOc2ccc(C(=N)N)cc2)cc1 [Pentamidine, reference compound] | 30.4 ± 10.5 | 30.4 | 5.3 ± 0.8 | > 0.03 | 74.7 | 7.7 ± 1 | 5.3 to 74.7 | 30 | – | IC50 [3, 10]: 16.2 µM
5 | Cc1ccc(S(=O)(=O)N(CCOCCOc2ccc(-c3cc(=O)c4ccccc4o3)cc2)CCOCCOc2ccc(-c3cc(=O)c4ccccc4o3)cc2)cc1 [Compound 25a, 1,13-Bis[4′-(4H-chromen-4-on-2-yl)phenyl]-N-(4-methylbenzenesulfonyl)-1,4,10,13-tetraoxa-7-azamidecane] | – | – | – | – | – | – | – | – | (5.8) | IC50 ([1]; 3 days at 27° C., MTS): > 100 µM; IC50 (LCC6 cells): > 100 µM; IC50 (L929 cells): > 100 µM; IC50 (Raw264.7 cells; 72 hrs): > 100 µM; IC50 (LCC6MDR cells): > 100 µM; IC50 ([3]; 3 days at 27° C., MTS): 100 µM
6 | O=c1cc(-c2ccc(OCCOCCN(CCOCCOc3ccc(-c4cc(=O)c5ccccc5o4)cc3)Cc3ccncc3)cc2)oc2ccccc12 [Compound 21, 1,13-Bis[4′-(4H-chromen-4-on-2-yl)phenyl]-N-(4-pyridylmethyl)-1,4,10,13-tetraoxa-7-azamidecane] | > 88 | > 88 | – | 0.00063 ± 0.00012 | 0.13 ± 0.04 | – | 0.13 to 0.35 | > 100 | (6.9) | IC50 ([1]; Leishmania donovani, 72 h): 0.19 ± 0.03 µM; % of macrophage infected (Ld39 amastigotes; 5 μM, solvent control 100%): 20%; Number of amastigotes per 100 macrophages (Ld39 amastigotes; 5 μM, solvent control 887): 48; IC50 (Ld39 amastigotes; read-out: IC50 against Ld39 amastigotes): 0.00063 mM; IC50 (Lm50122 promastigotes): 0.35 ± 0.07 µM; IC50 at 72 h [4]: > 100 µM; Fold lower anti L. donovani promastigote activity than amphotericin B (Leishmania promastigotes; L. donovani): 2 fold; IC50 at 72 h [5]: 26.4 ± 2.7 µM; IC50 at 72 h [6]: > 100 µM; IC50 ([3]; Leishmania donovani, 72 h): 0.18 ± 0.02 µM
7 | CC(C)(C)OC(=O)N(CCOCCOc1ccc(-c2cc(=O)c3ccccc3o2)cc1)CCOCCOc1ccc(-c2cc(=O)c3ccccc3o2)cc1 [Compound 16a, 1,13-Bis[4′-(4H-chromen-4-on-2-yl)phenyl]-N-(tert-butyloxycarbonyl)-1,4,10,13-tetraoxa-7-azamidecane] | – | – | – | – | 1.1 | – | – | > 100 | (11.1) | IC50 ([1]; Leishmania donovani, 72 h): 1.6 µM; IC50 at 72 h [4]: 8 ± 2.5 µM; IC50 at 72 h [5]: < 11.1 µM; IC50 (L929 cells; IC50 of compound alone, 72 hrs, mouse fibroblast, read-out: Cytotoxicity (μM) L929): 11.1 µM; Ability to restore paclitaxel sensitivity, fold higher than verapamil (Pgp (LCC6MDR cells); 1.0 μM, LCC6MDR): 24 fold; EC50 (Pgp (LCC6MDR cells); EC50 of compounds for reversing anticancer drug resistance (nM), Paclitaxel, LCC6MDR): 320 ± 40 nM; Therapeutic index (Pgp (LCC6MDR cells); IC50 of compounds for L929/EC50 of compounds for lowering paclitaxel drug resistance): 34.7; IC50 at 72 h [7]: < 8 µM; IC50 at 72 h [6]: 6.2 ± 0.8 µM; IC50 ([3]; Leishmania donovani, 72 h): 3.2 µM
